Patent US10620188B2, “Using impedance-based cell response profiling to identify putative inhibitors for oncogene addicted targets or pathways” (ACEA Biosciences, Inc., priority 2002, dated 2020)

Key:
SK-MEL-28 = assay: Impedance-based TCRP of SK-MEL-28, b-Raf (V600E) addicted melanoma cells; type: cell-based, human; settings: SK-MEL-28; increasing concentrations
Procedure: (A) The impedance-based time-dependent cellular profiles (TCRPs) of SK-MEL28 in response to b-Raf inhibitor on xCelligence system (Roche/ACEA). […] The cell index (CI) was normalized at time of the compound addition. At the indicated time point of treatment (arrow), increasing concentrations of b-Raf inhibitor (from 0 to 10 uM) were added to the cells and the cell response was monitored. […] (B) EC50 of b-Raf derived from impedance-based TCRP.
(§4) The cell index (CI) was normalized at time of compound addition.
Cell lines. […] The time-dependent cell response profiles (TCRP) were monitored prior to and after the compound addition using the xCelligence system (ACEA Biosciences/Roche applied sciences).
(§5) Kinase inhibitors including b-Raf inhibitors at different concentrations in DMSO were added into wells following the incubation period. The cell status was monitored prior to and after the compound addition using xCelligence system (Roche applied sciences). […] The Cell index was normalized against the cell index values at a time point just before compound addition.

SH-SY5Y = assay: Impedance-based TCRP of SH-SY5Y cells, mutant ALK (F1174L); type: cell-based, human; settings: 10 uM
Description: The cell index (CI) was normalized at time of compound addition. […] DMSO was served as solvent control.
The cell index was normalized at time of compound addition. DMSO at the same dose was served as solvent control.
as §4

C6 = assay: Impedance-based TCRP of PDGFR addicted C6 glioma cells; type: cell-based, rat; settings: C6; increasing concentrations
Procedure: as §4
Kinase inhibitors including PDGFR inhibitors at different concentrations in DMSO were added into wells following the incubation period. The cell status was monitored prior to and after the compound addition using xCelligence system (Roche applied sciences). […] The Cell index was normalized against the cell index values at a time point just before compound addition.
IC50 of the PDGFR inhibitor can be derived from the CI versus the corresponding log concentration of the inhibitor.

H1993 = assay: Impedance-based TCRP of Met addicted H1993 cells (xCelligence); type: cell-based, human; settings: H1993; increasing concentrations
Procedure: Cells were treated with ACEA348 (0-10 uM) for 30 min.
as §4
The time-dependent cell response profiles (TCRP) were monitored prior to and after the compound addition using the xCelligence system (ACEA Biosciences/Roche applied sciences).
The Cell index was normalized against the cell index values at a time point just before compound addition. […] EC50 and IC50 of the Met inhibitor can be derived from the CI versus the corresponding log concentration of the inhibitor.

Colo-205 = assay: Impedance-based TCRP of Colo-205 cells, b-Raf (V600E); type: cell-based, human; settings: increasing concentrations
Procedure: (A) The impedance-based time-dependent cellular profiles (TCRPs) of colo205 in response to b-Raf inhibitor on xCelligence system (Roche/ACEA). […] The cell index (CI) was normalized at time of the compound addition. At the indicated time point of treatment (arrow), increasing concentrations of b-Raf inhibitor (from 0 to 10 uM) were added to the cells and the cell response was monitored. […] (B) IC50 of b-Raf derived from impedance-based TCRP.
as §4, §5

10T1/2 tva = assay: Impedance-based TCRP of control cell line 10T1/2 tva; design: species or system mouse; settings: 10T1/2 tva control cell line; from 0 to 10 uM
Procedure: as §4
(§6) Then the normal growth medium (10% FBS) was exchanged with medium containing 0% FBS. The cells were incubated for additional 5 hours before compound treatment. A PI3K inhibitor (PI103) at different concentrations in DMSO was added into wells following the incubation period. The cell status was monitored prior to and after the compound addition using xCelligence system (Roche applied sciences). […] Cell index of the cells treated with solvent DMSO control was used as baseline. The Cell index was normalized against the cell index values at a time point just before compound addition.

A549 = assay: Impedance-based TCRP of A549 cells (wild-type p110α) to PI3K inhibitor; type: cell-based, human; settings: A549 expressing wild-type p110α; serum starved 5 hour
Procedure: (§1) Cells were serum starved for 5 hour. The cell index was normalized at time of compound addition. At the indicated time point of treatment, increasing concentrations of PI103 (0-10 uM) was added to the cells and the cell responses were monitored.
(§2) Cell lines. A mouse fibroblast 10T1/2 expressing the cell-surface receptor TVA, which is specific for subgroup-A avian retroviruses was used. The cells were transformed by infection with human p110α (H1047R)-expressing avian retrovirus and are referred to as 10T1/2 tva-H1047R. A549 is a human lung cancer cell line expressing wild-type p110α. T47D and BT20 are human breast cancer cell lines expressing mutant p110α (T47D) and p110α (P539R/H1047R), respectively.
(§3) To test if the characteristic TCRP is specific to PI3K inhibition, we also test the cell responses in several other cell lines (FIG. 35). […] Such characteristic TCRP could be used for identifying or screening unknown biologically active agents which may act as PI3K inhibitors.

BT20 = assay: Impedance-based TCRP of BT20 cells (p110α P539R/H1047R) to PI3K inhibitor; type: cell-based; settings: Homo sapiens, BT-20, 10 min
Procedure: as §1, §2, §3

10T1/2 tva-H1047R = assay: Impedance-based TCRP of 10T1/2 tva-H1047R cells expressing human p110α (H1047R); type: cell-based, mouse
Procedure: as §4
A mouse fibroblast 10T1/2 expressing the cell-surface receptor TVA, which is specific for subgroup-A avian retroviruses was used. […] A549 is a human lung cancer cell line expressing wild-type p110α. T47D and BT20 are human breast cancer cell lines expressing mutant p110α (T47D) and p110α (P539R/H1047R), respectively.
as §6

T47D = assay: Impedance-based TCRP of T47D cells (mutant p110α) to PI3K inhibitor; type: cell-based; settings: Homo sapiens, 10 min
Procedure: as §1, §2, §3

AKT phosphorylation = assay: Western analysis of PI3K downstream signal in 10T1/2 tva-H1047R and 10T1/2 tva; type: cell-based, mouse; settings: 10 uM; treated for 2 hours; serum starved 5 hours
Description: Cells were lysed and subject to Western analyses. […] Equal intensity of GAPDH bands indicated equal protein loading.

RBL-2H3 PDGFRβ = assay: Impedance response of engineered RBL-2H3 PDGFRβ cells to PDGF stimulation and PDGFR inhibition; type: cell-based, rat; settings: serum starved 2 hour, peak normalized CI response
Procedure: RBL-2H3 PDGFRβ cells were seeded at 20,000 cells per well of 96-well E-plate (Roche/ACEA). The cells were continuously monitored using the xCelligence system (Roche/ACEA). […] The cell index (CI) was normalized at time of compound addition. Time zero depicts the time point of treatment. […] The cell index (CI) was normalized at time of compound addition. Time zero depicts the time point of treatment.

RBL-2H3 = assay: Impedance response of parental RBL-2H3 cells; type: cell-based, rat; settings: RBL-2H3 parental
Procedure: Cell lines. RBL2H3-PDGFR is engineered rat basophilic cell line that expresses exogenous PDGFRβ. RBL2H3 is the parental cell line.
RBL2H3-PDGFR overexpressing PDGFRβ was constructed by Lenti viral transduction of RBL2H3. Both RBL2H3-PDGFR and RBL2H3 cells were seeded at 20,000 cells per well of 96-well E-plate (Roche/ACEA). The cells were continuously monitored using the xCelligence system (Roche/ACEA).
Cells were serum starved for 2 hour, then stimulated by addition of PDGF BB (0-50 ng/ml). […] Plotting the peak normalized CI response versus the corresponding log concentration allows for calculation of the EC50 (1.07 ng.mL) of PDGF acting on PDGFR in the engineered cell line.
This dose-dependent decease in the CI is specific to PDGFR inhibition.

In the case of `COc1cc2ncnc(Nc3ccc(F)c(Cl)c3)c2cc1OCCCN1CCOCC1` [Gefitinib], the “TCRP (Cell Index response)” value (SK-MEL-28) is reported as “did not affect CI changes that are significantly different from the negative control”, the “TCRP (Cell Index response)” value (SH-SY5Y) is reported as “None trigged a TCRP representative to that trigger by ALK inhibitors” and the “TCRP (Cell Index response)” value (C6) is reported as “did not affect CI changes that are significantly different from the negative control”. For the same compound, the “TCRP (Cell Index response)” value (H1993) was “None of these inhibitors induced a TCRP similar to PF2341006” and the “TCRP (Cell Index response, cell growth)” value (Colo-205) was “did not inhibit Colo205 cell growth”.

For `Oc1cccc(-c2nc(N3CCOCC3)c3oc4ncccc4c3n2)c1` [PI103], the “TCRP (Cell Index response)” value (10T1/2 tva) was “did not show a clear dose response”, the “TCRP (Cell Index response)” value (A549) was “did not show clear dose response” and the IC50 (BT20) was 165 nM. The “TCRP (Cell Index response)” value (10T1/2 tva-H1047R; 10T1/2 tva-H1047R in the presence of siRNA targeting human p110α, within 10 min of compound addition) was “no sharp decrease”, the “TCRP (Cell Index response)” value (10T1/2 tva-H1047R; 10T1/2 tva-H1047R, serum starved, from 0 to 10 uM) was “immediate decrease” and the IC50 (10T1/2 tva-H1047R; Mus musculus, 5 h, read-out: IC50 (TCRP)) was 89 nM. The IC50 (T47D) was 126 nM and the “PI3K downstream signal (AKT phosphorylation), Western” value (AKT phosphorylation) was “efficiently inhibited”.

With “PDGF: PDGF BB, ligand used to stimulate PDGFRβ” the “EC50 of PDGF acting on PDGFR” value (RBL-2H3 PDGFRβ) was 1.07 ng·mL and the “Cell Index response of parental cell line” value (RBL-2H3) was “did not show any response”.
